# From publication PMC9866728, “Dosing Methods to Enable Cell-Based In Vitro Testing of Complex Substances: A Case Study with a PAH Mixture” (Toxics, 2022)
# Several values for one entry are separate records, joined by “and”; a condition that tells them apart may be missing. Equal values may be shown once. Read-outs that look alike come from different tables or passages of the source.
# Key:
# [1] = Loading kinetics of silicone micro-O-rings from methanol PAH solution (GC-MS/MS); format: physicochemical
# [2] = Recovery over time from exposure to cell culture media without cells (GC-MS/MS); format: physicochemical
# [3] = O-ring loading rate constant, larger O-rings; ref Smith et al. 2010 [24]; cited from earlier work
# [4] = Smith et al. O-Rings; ref Smith et al. 2010 [24]; cited from earlier work
# [5] = Table S1; ref PubChem; cited from earlier work
# [6] = loading rate constant, one-phase association (h^-1), 10 µg/mL PAH mix in methanol
# [7] = one-phase association fit of nominal Csilicone (µg/mL per Eq 1), 10 µg/mL PAH mix in methanol
# [8] = one-phase association fit of nominal Csilicone, 10 µg/mL PAH mix in methanol, 0-24 h
# [9] = one-phase association fit, micro-O-ring absorption
# [10] = MAF (400 ng/mL each PAH), one phase decay fit of nominal recovery
# [11] = MAF (400 ng/mL each PAH), one phase decay fit of nominal recovery (text: ng/mL)
# [12] = O-Rings (loaded in 10 µg/mL PAH solution), one phase association fit of nominal recovery
# [13] = O-Rings, one phase association fit
# [14] = O-Rings, one phase association fit (desorption into media)
# [15] = Solvent Extract (DMSO, 15 ng/mL each PAH), one phase decay fit of nominal recovery
# [16] = Solvent Extract (DMSO, 15 ng/mL each PAH), one phase decay fit of nominal recovery (text: ng/mL)
# [17] = Solvent Extract, one phase decay fit
Compound,Half-time Value [1],K Value [1],Plateau Value [1],Span Value [1],Tau Value [1],Y0 [1],Half-time [2],"K Value [1, 6]","Plateau Value [1, 7]","Y0 [1, 8]","Half-time Value [1, 9]","Span Value [1, 9]","Tau Value [1, 9]","Y0 [2, 10]","Plateau [2, 11]","K ([2]; MAF, one phase decay fit)","Span ([2]; MAF, one phase decay fit)","Tau ([2]; MAF, one phase decay fit)","Plateau [2, 12]",Smith et al. 2010 K Value [3],also measured
c1cc2cccc3c4cccc5cccc(c(c1)c23)c54 [Perylene],0.02047,33.856,0.1047,0.1047,0.02954,0,1.656,,,,,,,,,,,,,,
c1ccc2c(c1)-c1cccc3c1c-2cc1ccccc13 [Benzo[b]fluoranthene],0.02358,29.3997,0.1089,0.1089,0.03401,0,1.392,,,,,,,,,,,,,,
c1ccc(-c2ccccc2)cc1 [Biphenyl],0.02096,33.0653,0.6997,0.6997,0.03024,0,0.591,,,,,,,,,,,,,,K [2]: 1.298 and 1.173 and 1.091; Tau [2]: 0.7703 and 0.8527 and 0.917
c1ccc2c(c1)cc1ccc3cccc4ccc2c1c34 [Benzo[a]pyrene],,,,,,,,33.8629,0.1047,0,0.02047,0.1047,0.02953,391.4,203.9,0.5026,187.5,1.989,1.337,1.32,"Y0 [2, 12]: 0.02292; Half-time [2, 13]: 1.658; Span [2, 13]: 1.314; Tau [2, 13]: 2.392; K [2, 14]: 0.418; Y0 [2, 15]: 15.28; Plateau [2, 16]: 6.176; K [2, 17]: 0.1275; Span [2, 17]: 9.105; Tau [2, 17]: 7.845; K [4]: 0.57; LogKow (PubChem) [5]: 6.13"
c1cc2ccc3cccc4ccc(c1)c2c34 [Pyrene],0.03121,22.209,0.4017,0.4017,0.04503,0,0.6521,,,,,,,,,,,,,1.35,K [4]: 1.04
c1cc2c3c(cccc3c1)CC2 [Acenaphthene],,,,,,,,22.38,0.8224,0,0.03097,0.8224,0.04468,398.6,44.72,0.9374,353.9,1.067,0.8203,1.8,"Y0 [2, 12]: -0.03588; Half-time [2, 13]: 2.678; Span [2, 13]: 0.8562; Tau [2, 13]: 3.863; K [2, 14]: 0.2589; Y0 [2, 15]: 14.88; Plateau [2, 16]: 2.58; K [2, 17]: 0.7259; Span [2, 17]: 12.3; Tau [2, 17]: 1.378; LogKow (PubChem) [5]: 3.92"
Cc1cccc2ccccc12 [1-Methylnaphthalene],,,,,,,,26.6865,0.8912,0,0.02597,0.8912,0.03747,399.6,37.1,1.206,362.5,0.8293,1.035,,"best-fit rate constants (micro-O-ring loading) ([1]; loading from methanol solution): 26.7 h⁻¹; Y0 [2, 12]: -0.0496; Half-time [2, 13]: 1.691; Span [2, 13]: 1.085; Tau [2, 13]: 2.439; K [2, 14]: 0.41; Y0 [2, 15]: 14.94; Plateau [2, 16]: 2.307; K [2, 17]: 0.9085; Span [2, 17]: 12.63; Tau [2, 17]: 1.101; LogKow (PubChem) [5]: 3.87"
"c1cc2ccc3ccc4ccc5cccc6c(c1)c2c3c4c56 [Benzo[g,h,i]perylene]",0.01297,53.4605,0.06193,0.06193,0.01871,0,1.63,,,,,,,,,,,,,,
c1ccc2cc3ccccc3cc2c1 [Anthracene],,,,,,,,27.2512,0.255,0,0.02544,0.255,0.0367,398.5,49.04,0.9206,349.4,1.086,0.3725,1.82,"Y0 [2, 12]: -0.1844; Half-time [2, 13]: 0.1723; Span [2, 13]: 0.5569; Tau [2, 13]: 0.2486; K [2, 14]: 4.022; Y0 [2, 15]: 14.66; Plateau [2, 16]: 2.703; K [2, 17]: 0.5624; Span [2, 17]: 11.96; Tau [2, 17]: 1.778; K [4]: 2.3; LogKow (PubChem) [5]: 4.45"
c1ccc2cc3c(cc2c1)-c1cccc2cccc-3c12 [Benzo[k]fluoranthene],,,,,,,,29.8778,0.1081,0,0.0232,0.1081,0.03347,386,124.5,0.2609,261.5,3.833,0.7223,,"Y0 [2, 12]: 0.005418; Half-time [2, 13]: 1.391; Span [2, 13]: 0.7169; Tau [2, 13]: 2.006; K [2, 14]: 0.4984; Y0 [2, 15]: 15.74; Plateau [2, 16]: 4.199; K [2, 17]: 0.1008; Span [2, 17]: 11.54; Tau [2, 17]: 9.919; LogKow (PubChem) [5]: 6.11"
c1ccc2c(c1)ccc1c3ccccc3ccc21 [Chrysene],4.881,0.142,0.1581,0.1581,7.042,0,77098,,,,,,,,,,,,,1.37,
Cc1ccc2ccccc2c1 [2-Methylnaphthalene],0.02597,26.6855,0.8914,0.8914,0.03747,0,0.5872,,,,,,,,,,,,,,best-fit rate constants (micro-O-ring loading) [1]: 26.7 h⁻¹; K [2]: 1.206 and 1.18 and 0.9072; Tau [2]: 0.8294 and 0.8472 and 1.102
c1ccc2cc3c(ccc4ccccc43)cc2c1 [Benzo[a]anthracene],4.451,0.1557,0.1684,0.1684,6.421,0,2.255,,,,,,,,,,,,,1.38,
c1ccc2ccccc2c1 [Naphthalene],,,,,,,,33.9576,0.7013,0,0.02041,0.7013,0.02945,399.7,38.47,1.287,361.2,0.7773,1.084,2.38,"Y0 [2, 12]: -0.1564; Half-time [2, 13]: 0.378; Span [2, 13]: 1.24; Tau [2, 13]: 0.5454; K [2, 14]: 1.834; Y0 [2, 15]: 14.8; Plateau [2, 16]: 3.339; K [2, 17]: 0.6384; Span [2, 17]: 11.46; Tau [2, 17]: 1.566; K [4]: 3.55"
"c1ccc2c(c1)-c1ccc3ccc4cccc5cc-2c1c3c45 [Indeno[1,2,3-cd]pyrene]",0.01649,42.0316,0.0758,0.0758,0.02379,0,2.714,,,,,,,,,,,,,,
"c1ccc2c(c1)ccc1cc3c(ccc4ccccc43)cc12 [Dibenzo[a,h]anthracene]",3.094e-6,,0.033,0.033,4.463e-6,0,1.539,,,,,,,,,,,,,1.1,
C1=Cc2cccc3cccc1c23 [Acenaphthylene],,,,,,,,22.7382,0.6656,0,0.03048,0.6656,0.04398,399.1,41.99,1.016,357.1,0.9842,0.6692,,"Y0 [2, 12]: -0.08033; Half-time [2, 13]: 0.6114; Span [2, 13]: 0.7495; Tau [2, 13]: 0.882; K [2, 14]: 1.134; Y0 [2, 15]: 14.88; Plateau [2, 16]: 2.66; K [2, 17]: 0.7341; Span [2, 17]: 12.22; Tau [2, 17]: 1.362"
